In publication PMC6491818, “Novel 4-Acrylamido-Quinoline Derivatives as Potent PI3K/mTOR Dual Inhibitors: The Design, Synthesis, and in vitro and in vivo Biological Evaluation” (Frontiers in Chemistry, 2019):
“Also recorded” adds a separate entry of the source.

How the values were obtained:
[1] = biological target: PI3Kα (Homo sapiens, UniProt P42336); experiment: PI3Kα enzymatic assay (Kinase-Glo Luminescent Kinase assay); type: biochemical
Procedure: (§3) Kinase-Glo Luminescent Kinase assay (Promega) was performed to determine the PI3Kα inhibitory activity, while ADP-Glo Luminescent assay (Promega) was performed to identify the inhibitory activity against PI3Kβ, γ, or δ. The kinase buffer was composed of HEPES (50 mM, pH 7.5), MgCl2 (3 mM), EGTA (1 mM), NaCl (100 mM), CHAPS (0.03%) and DTT (2 mM). The serially diluted compound solutions (2.5 mL) were successively added to a 384-well plate. Afterwards, the solution of kinase (2.5 mL) in the kinase buffer and the solution of substrate (5 mL) in the kinase buffer containing PIP2 and ATP were added to each well of the assay plate for starting the reaction. Kinase buffer was added instead to the control well without enzyme. […] After being incubated at room temperature for 1 h, Kinase-Glo reagent (10 mL) was added to each well of the PI3Kα assay plate to quench the reaction. […] The mixture was treated briefly with centrifuge, shaken slowly, and equilibrated for 40 min. Kinase Detection reagent (10 mL) was added to each well. Before reading on a plate reader for luminescence, the resultant mixture was incubated at room temperature for 1 h. After calculating the percent inhibition from the RLU values, the curves were fitted in Graphpad Prism 5 to give IC50 values.

[2] = biological target: PI3Kβ (Homo sapiens, UniProt P42338); experiment: PI3Kβ enzymatic assay (ADP-Glo Luminescent assay); type: biochemical
Procedure: as §3

[3] = biological target: PI3Kγ (Homo sapiens, UniProt P48736); experiment: PI3Kγ enzymatic assay (ADP-Glo Luminescent assay); type: biochemical
Procedure: (§1) Kinase-Glo Luminescent Kinase assay (Promega) was performed to determine the PI3Kα inhibitory activity, while ADP-Glo Luminescent assay (Promega) was performed to identify the inhibitory activity against PI3Kβ, γ, or δ. The kinase buffer was composed of HEPES (50 mM, pH 7.5), MgCl2 (3 mM), EGTA (1 mM), NaCl (100 mM), CHAPS (0.03%) and DTT (2 mM). The serially diluted compound solutions […] were successively added to a 384-well plate. Afterwards, the solution of kinase […] in the kinase buffer and the solution of substrate (5 mL) in the kinase buffer containing PIP2 and ATP were added to each well of the assay plate for starting the reaction. Kinase buffer was added instead to the control well without enzyme. The final concentrations of PI3Kα, PI3Kβ, PI3Kγ, PI3Kδ, PIP2, and ATP in corresponding kinase reaction mixture were 1.65 nM, 4.8 nM, 7.6 nM, 5.7 nM, […], respectively. After being incubated at room temperature for 1 h, Kinase-Glo reagent (10 mL) was added to each well of the PI3Kα assay plate to quench the reaction. Subsequently, the mixture needs to be mixed briefly with centrifuge and shaken slowly for 15 min before being read on a plate reader for luminescence. As for PI3Kβ, γ, or δ, reaction mixture (5 mL) was transferred to a new 384-plate and ADP-Glo reagent (5 mL) was added for stopping the reaction. The mixture was treated briefly with centrifuge, shaken slowly, and equilibrated for 40 min. Kinase Detection reagent (10 mL) was added to each well. Before reading on a plate reader for luminescence, the resultant mixture was incubated at room temperature for 1 h. After calculating the percent inhibition from the RLU values, the curves were fitted in Graphpad Prism 5 to give IC50 values.

[4] = biological target: PI3Kδ (Homo sapiens, UniProt O00329); experiment: PI3Kδ enzymatic assay (ADP-Glo Luminescent assay); type: biochemical
Procedure: as §3

[5] = biological target: mTOR (1362-end, Millipore) (Homo sapiens, UniProt P42345); experiment: mTOR enzymatic assay (Lance Ultra assay); type: biochemical
Procedure: The kinase buffer was composed of HEPES (50 mM, pH 7.5), MgCl2 (10 mM), EGTA (1 mM), MnCl2 (3 mM), Tween-20 (0.01%) and DTT (2 mM). The solution of substrate in the kinase buffer contained ULight-4E-BP1 peptide (Thr37/46, PE) and ATP. […] After being incubated at room temperature for 1 h, kinase detection buffer (10 mL) containing EDTA and Eu-anti-phospho-4E-BP1 antibody (Thr37/46, PE) was added to each well of the assay plate. Before reading on a plate reader, the mixture needs to be mixed briefly with centrifuge and then allowed to equilibrate for 1 h. After calculating the percent inhibition from Lance signal, the curves were fitted in Graphpad Prism 5 to give IC50 values.

[6] = tested on: prostate cancer PC3 cell line; experiment: Anti-proliferative SRB assay, PC3; type: cell-based; conditions: PC3 cells, 72 h exposure
Procedure: (§2) The anti-proliferative activity of compounds was evaluated by sulforhodamin B (SRB) assay. After being cultured for 10 h, cells in 96-well plates were subjected to 72 h-exposure to serially diluted compound solutions. Cells were washed with PBS and fixed with trichloroacetic acid (10%, W/V) at 4°C for 1 h. Then, cells were successively washed with PBS, stained for 0.5 h with SRB (0.4%, dissolved in 1% acetic acid), and washed by 1% acetic acid for 5 times. Protein-bound dye was extracted with unbuffered Tris base (10 mmol). After calculating the percent inhibition from absorbance, measured at 515 nm with a multiscan spectrum (Thermo Electron Co., Vantaa, Finland), the curves were fitted in Graphpad Prism 5 to give GI50 values.

[7] = tested on: colorectal cancer HCT116 cell line; experiment: Anti-proliferative SRB assay, HCT116; type: cell-based; conditions: 72 h exposure
Procedure: as §2

[8] = tested on: phos-Akt (Ser473), phos-Akt (Thr308), phos-S6 ribosomal protein (Ser235/236), phos-4E-BP1 (Thr37/46); experiment: Western blot of PI3K/Akt/mTOR signaling biomarkers in PC3 cells; type: cell-based; conditions: 3 h treatment
Procedure: The Western blot analysis for evaluating the capability to down-regulate phos-Akt (Ser473), phos-Akt (Thr308), phos-S6 ribosomal protein (Ser235/236), and phos-4E-BP1 (Thr37/46) in PC3 cells was performed according to the protocol disclosed in our previous study (Zhang et al., [2017a]) with a minor modification. The cells were seeded into six-well plate at 1 × 10^6 cells per well, and then incubated at 37°C (5% CO2) overnight prior to drug treatment.

[9] = Pharmacokinetic study in SD rats, oral; type: in vivo; conditions: Sprague-Dawley, rat, plasma, 5 mg/kg
Procedure: SD rats were utilized for the PK study of 8i following oral gavage at the dosage of 5 mg/kg, and the oral dose was formulated in a homogenous opaque suspension of 0.5% methylcellulose. This experiment was performed with the protocol disclosed in our previous work (Zhang et al., [2017b]). The study was carried out in accordance with institutional guidelines of the Animal Research Committee at Jiaxing University (log number JXU2015120812). The protocol was approved by the institution.

[10] = biological target: PI3Ks and mTOR; experiment: Enzymatic activity against PI3Ks and mTOR (summary over all tested enzymes); type: biochemical; conditions: PI3Kα, PI3Kβ, PI3Kγ, PI3Kδ and mTOR
Procedure: as §1, with “After being incubated at room temperature for 1 h, Kinase-Glo reagent (10 mL) was added to each well of the PI3Kα assay plate to quench the reaction.” left out, “As for PI3Kβ, γ, or δ, reaction mixture (5 mL) was transferred to a new 384-plate and ADP-Glo reagent (5 mL) was added for stopping the reaction. The mixture was treated briefly with centrifuge, shaken slowly, and equilibrated for 40 min. Kinase Detection reagent (10 mL) was added to each well.” left out, “After calculating the percent inhibition from the RLU values, the curves were fitted in Graphpad Prism 5 to give IC50 values.” left out
Lance Ultra assay was performed to determine the mTOR (1362-end, Millipore) inhibitory activity. […] Before reading on a plate reader, the mixture needs to be mixed briefly with centrifuge and then allowed to equilibrate for 1 h. […]

[11] = Liver microsomal stability assay, HLM; conditions: human, liver microsomes
[12] = Liver microsomal stability assay, RLM; conditions: Sprague-Dawley, rat, liver microsomes
[13] = in vitro; conditions: human, microsomes
[14] = in vitro; conditions: Sprague-Dawley, rat, microsomes

Sequence of PI3Kβ (P42338 whole entry): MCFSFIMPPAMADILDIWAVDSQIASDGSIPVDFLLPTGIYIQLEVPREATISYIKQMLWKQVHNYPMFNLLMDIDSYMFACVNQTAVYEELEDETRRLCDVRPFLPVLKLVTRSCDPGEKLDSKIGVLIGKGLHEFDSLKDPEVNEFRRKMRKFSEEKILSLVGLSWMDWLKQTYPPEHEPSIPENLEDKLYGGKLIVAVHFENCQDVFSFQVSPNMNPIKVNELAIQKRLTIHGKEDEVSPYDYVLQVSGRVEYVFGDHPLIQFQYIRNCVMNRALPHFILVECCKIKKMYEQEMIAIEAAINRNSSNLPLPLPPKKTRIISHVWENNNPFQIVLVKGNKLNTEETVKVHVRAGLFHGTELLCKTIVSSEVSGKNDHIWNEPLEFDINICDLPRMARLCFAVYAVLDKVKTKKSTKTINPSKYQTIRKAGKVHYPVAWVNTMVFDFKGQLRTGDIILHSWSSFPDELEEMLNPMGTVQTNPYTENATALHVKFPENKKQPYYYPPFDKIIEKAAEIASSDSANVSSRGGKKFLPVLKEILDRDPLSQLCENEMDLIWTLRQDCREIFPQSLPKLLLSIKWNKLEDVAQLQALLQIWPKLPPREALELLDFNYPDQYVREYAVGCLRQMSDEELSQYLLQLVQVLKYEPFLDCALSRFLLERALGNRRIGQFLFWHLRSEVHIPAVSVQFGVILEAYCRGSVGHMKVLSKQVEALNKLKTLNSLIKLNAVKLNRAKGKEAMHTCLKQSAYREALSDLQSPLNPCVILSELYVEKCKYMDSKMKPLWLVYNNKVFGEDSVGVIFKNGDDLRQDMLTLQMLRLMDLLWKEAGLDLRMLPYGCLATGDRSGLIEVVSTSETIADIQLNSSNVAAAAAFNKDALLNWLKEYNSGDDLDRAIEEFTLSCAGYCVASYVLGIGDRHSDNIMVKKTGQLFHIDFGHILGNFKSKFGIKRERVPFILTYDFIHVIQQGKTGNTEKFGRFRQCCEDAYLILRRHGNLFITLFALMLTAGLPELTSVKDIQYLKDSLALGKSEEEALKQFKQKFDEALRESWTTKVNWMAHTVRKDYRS
Sequence of PI3Kβ (P27986 whole entry partner): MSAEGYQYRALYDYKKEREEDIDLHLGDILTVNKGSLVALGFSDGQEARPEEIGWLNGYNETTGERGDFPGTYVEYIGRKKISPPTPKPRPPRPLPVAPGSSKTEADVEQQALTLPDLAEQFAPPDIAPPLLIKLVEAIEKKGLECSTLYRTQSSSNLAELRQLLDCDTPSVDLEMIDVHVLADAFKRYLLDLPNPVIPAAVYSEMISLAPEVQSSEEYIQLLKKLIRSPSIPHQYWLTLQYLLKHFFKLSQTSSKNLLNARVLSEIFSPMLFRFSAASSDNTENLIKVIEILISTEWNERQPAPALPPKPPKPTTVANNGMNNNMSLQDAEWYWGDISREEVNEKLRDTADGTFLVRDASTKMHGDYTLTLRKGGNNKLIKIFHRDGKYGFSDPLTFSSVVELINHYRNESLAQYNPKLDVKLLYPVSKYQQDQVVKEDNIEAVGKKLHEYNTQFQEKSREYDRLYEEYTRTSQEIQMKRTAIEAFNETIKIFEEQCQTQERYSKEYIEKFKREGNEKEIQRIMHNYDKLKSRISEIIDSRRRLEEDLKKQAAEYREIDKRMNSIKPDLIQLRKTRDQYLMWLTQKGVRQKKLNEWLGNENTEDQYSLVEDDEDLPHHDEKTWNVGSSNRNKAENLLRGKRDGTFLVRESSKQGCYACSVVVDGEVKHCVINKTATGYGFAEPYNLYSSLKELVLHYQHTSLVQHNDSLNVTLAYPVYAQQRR
Sequence of PI3Kδ (O00329 whole entry): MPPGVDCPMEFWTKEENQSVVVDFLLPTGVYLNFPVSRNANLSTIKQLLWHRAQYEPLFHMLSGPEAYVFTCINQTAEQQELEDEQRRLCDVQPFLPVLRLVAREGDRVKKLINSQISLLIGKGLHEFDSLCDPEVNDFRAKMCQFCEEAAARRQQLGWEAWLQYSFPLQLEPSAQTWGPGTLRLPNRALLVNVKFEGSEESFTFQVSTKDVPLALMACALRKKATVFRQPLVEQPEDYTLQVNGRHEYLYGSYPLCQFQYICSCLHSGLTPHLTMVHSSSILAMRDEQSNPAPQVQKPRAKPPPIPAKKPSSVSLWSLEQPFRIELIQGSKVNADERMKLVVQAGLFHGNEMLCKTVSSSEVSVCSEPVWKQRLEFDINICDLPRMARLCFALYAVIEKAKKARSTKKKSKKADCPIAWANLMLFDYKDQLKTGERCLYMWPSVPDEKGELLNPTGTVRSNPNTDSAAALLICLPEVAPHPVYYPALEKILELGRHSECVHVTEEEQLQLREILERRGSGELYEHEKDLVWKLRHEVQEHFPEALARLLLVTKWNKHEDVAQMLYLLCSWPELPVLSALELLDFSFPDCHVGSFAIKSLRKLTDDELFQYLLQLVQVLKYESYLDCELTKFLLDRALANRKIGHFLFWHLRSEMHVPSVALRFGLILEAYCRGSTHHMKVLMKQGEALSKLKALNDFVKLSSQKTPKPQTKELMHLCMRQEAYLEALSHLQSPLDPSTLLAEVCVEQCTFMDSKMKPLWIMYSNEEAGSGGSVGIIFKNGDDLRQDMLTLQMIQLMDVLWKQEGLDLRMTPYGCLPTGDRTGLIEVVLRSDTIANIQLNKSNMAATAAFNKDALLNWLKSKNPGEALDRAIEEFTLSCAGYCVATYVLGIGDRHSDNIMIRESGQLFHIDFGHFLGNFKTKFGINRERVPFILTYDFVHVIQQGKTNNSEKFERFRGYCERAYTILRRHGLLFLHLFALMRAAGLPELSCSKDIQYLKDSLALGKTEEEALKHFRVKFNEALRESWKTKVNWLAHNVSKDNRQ
Sequence of PI3Kδ (P27986 whole entry partner): as the sequence (P27986 whole entry partner) above
Sequence of PI3Kα (P42336 whole entry): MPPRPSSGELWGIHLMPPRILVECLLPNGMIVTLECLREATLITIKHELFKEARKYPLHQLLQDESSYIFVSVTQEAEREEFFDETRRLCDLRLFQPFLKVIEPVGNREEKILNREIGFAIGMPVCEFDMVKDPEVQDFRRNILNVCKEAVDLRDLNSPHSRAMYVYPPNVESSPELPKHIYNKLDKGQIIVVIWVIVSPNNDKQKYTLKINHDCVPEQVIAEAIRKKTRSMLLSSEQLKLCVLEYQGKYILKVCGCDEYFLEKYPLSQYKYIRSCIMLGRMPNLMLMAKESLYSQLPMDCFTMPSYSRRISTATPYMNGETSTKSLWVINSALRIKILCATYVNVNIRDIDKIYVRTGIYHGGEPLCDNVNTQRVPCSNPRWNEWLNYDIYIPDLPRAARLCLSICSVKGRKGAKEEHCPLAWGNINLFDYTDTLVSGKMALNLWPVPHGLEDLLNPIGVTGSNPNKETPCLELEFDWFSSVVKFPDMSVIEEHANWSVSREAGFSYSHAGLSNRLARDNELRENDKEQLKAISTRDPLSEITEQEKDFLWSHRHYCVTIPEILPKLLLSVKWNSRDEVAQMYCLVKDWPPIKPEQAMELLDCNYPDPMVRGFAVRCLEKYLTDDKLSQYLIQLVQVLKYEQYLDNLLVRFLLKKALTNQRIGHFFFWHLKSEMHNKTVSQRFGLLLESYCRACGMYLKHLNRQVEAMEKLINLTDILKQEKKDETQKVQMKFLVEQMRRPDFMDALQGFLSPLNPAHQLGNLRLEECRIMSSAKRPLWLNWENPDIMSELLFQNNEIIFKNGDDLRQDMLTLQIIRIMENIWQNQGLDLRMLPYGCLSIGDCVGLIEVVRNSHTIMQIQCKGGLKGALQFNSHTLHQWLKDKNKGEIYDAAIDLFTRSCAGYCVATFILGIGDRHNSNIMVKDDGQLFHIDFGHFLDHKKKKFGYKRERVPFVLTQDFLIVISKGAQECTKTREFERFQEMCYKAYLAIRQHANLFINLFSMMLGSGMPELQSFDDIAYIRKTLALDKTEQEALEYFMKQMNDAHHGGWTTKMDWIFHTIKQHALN
Sequence of PI3Kα (P27986 whole entry partner): as the sequence (P27986 whole entry partner) above
Sequence of PI3Kγ (P48736 whole entry): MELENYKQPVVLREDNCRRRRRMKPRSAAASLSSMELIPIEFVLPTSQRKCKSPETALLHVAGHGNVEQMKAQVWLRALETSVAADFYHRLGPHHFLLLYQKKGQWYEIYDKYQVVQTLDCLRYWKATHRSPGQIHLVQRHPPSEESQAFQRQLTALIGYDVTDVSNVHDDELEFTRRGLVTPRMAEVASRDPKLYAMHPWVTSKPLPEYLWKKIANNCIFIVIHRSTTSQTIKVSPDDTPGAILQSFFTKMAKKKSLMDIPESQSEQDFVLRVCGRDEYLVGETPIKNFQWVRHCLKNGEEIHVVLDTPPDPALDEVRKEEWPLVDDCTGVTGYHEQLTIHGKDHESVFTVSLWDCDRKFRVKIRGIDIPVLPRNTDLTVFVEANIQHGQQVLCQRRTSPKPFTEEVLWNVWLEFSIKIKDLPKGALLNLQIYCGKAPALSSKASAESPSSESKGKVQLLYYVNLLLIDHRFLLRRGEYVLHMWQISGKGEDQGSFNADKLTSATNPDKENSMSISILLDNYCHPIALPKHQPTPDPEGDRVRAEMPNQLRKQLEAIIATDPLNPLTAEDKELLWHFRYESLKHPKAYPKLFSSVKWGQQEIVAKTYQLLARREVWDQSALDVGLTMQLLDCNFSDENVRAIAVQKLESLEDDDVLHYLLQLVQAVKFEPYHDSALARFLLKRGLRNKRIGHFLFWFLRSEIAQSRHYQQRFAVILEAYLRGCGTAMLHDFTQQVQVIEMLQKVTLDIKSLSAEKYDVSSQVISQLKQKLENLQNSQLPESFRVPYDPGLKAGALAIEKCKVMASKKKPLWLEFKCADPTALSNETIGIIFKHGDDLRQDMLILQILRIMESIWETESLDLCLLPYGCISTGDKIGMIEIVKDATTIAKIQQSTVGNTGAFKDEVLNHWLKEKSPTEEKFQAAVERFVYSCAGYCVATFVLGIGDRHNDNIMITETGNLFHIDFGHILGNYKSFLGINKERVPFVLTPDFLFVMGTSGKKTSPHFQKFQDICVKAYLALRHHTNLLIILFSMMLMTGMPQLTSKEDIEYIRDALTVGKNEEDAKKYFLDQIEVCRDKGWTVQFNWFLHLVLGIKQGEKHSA

COc1ncc(-c2ccc3nccc(/C=C/C(=O)N4CCN(C)CC4)c3c2)cc1NS(=O)(=O)c1ccc(F)cc1F [8i, (E)-2,4-difluoro-N-(2-methoxy-5-(4-(3-(4-methylpiperazin-1-yl)-3-oxoprop-1-en-1-yl)quinolin-6-yl)pyridin-3-yl)benzenesulfonamide]
IC50 [1]: 0.5 nM | IC50 [2]: 1.5 nM | IC50 [3]: 0.55 nM | IC50 [4]: 1 nM | IC50 [5]: 1.3 nM | GI50 ([6]; Homo sapiens, PC-3, 72 h): < 500 nM | GI50 [6]: 400 nM | GI50 HCT116 ([7]; HCT116 cells): sub-micromolar | GI50 ([7]; Homo sapiens, HCT-116, HCT116 cells): 470 nM | effect on the level of phos-Akt (Ser473) compared with GSK2126458 [8]: stronger | down-regulation of phos-Akt (Ser473), phos-Akt (Thr308), phos-S6 ribosomal protein (Ser235/236) and phos-4E-BP1 (Thr37/46) ([8]; at a concentration as low as 5 nM): dramatically down-regulated; also recorded: remarkably down-regulated | AUC(0-inf) [9]: 412 ng·h/mL | AUC(0-t) [9]: 379 ng·h/mL | Cmax [9]: 249 ng/mL | half-life ([9]; read-out: elimination half-life t1/2 (converted)): 1.73 h | IC50 values against all the tested enzymes [10]: sub-nanomolar or low nanomolar level | CLint scaled [11]: 16.6 mL/min/kg | half-life [11]: 1.25 h | microsomal CLint [11]: 18.5 µL/min/mg | remaining at 1 h [11]: 57.1% | CLint scaled [12]: < 17.3 mL/min/kg | half-life [12]: > 2.42 h | microsomal CLint [12]: < 9.6 µL/min/mg | remaining at 1 h [12]: 72.8%

C[C@]12CC[C@H]3[C@@H](CCC4=CC(=O)CC[C@@]43C)[C@@H]1CC[C@@H]2O [Testosterone]
CLint scaled [13]: 91.1 mL/min/kg | remaining at 1 h [13]: 4.8% | CLint scaled [14]: 3780 mL/min/kg
